The values that follow come from paper PMC3493468 (Chembiochem : a European journal of chemical biology, 2011).

The test system of series [1] is IGF-1 induced activity of AKT. The experiment in a line: IGF-1-induced AKT activation. It is filed as cell-based. The note with it: MCF-7 cells, compound 1 hour, then IGF-1 25 ng/ml for 20 min; Figure 5.
Series [2] concerns SMO. The note with it: cited from earlier work.
The nature of series [3]: Biodistribution of 3H-labeled lipopeptide. The class given is in vivo, mice. To be noted: subcutaneous, topical, peritoneal or oral administration; Supplementary Figure S6.
For series [4], the system named is SMO. Put plainly: Inhibition of SMO function / Hedgehog pathway. It is filed as cell-based.

Peptide text beside a SMILES is read from it. * marks the point of attachment. Palmitoyl = CCCCCCCCCCCCCCCC(=O)*

Regarding `CCCCCCCCCCCCCCCC(=O)N[C@@H](CCCNC(=N)N)C(=O)N[C@@H](CC(N)=O)C(=O)N[C@@H](CC(N)=O)C(=O)N[C@@H](CO)C(=O)N[C@@H](CCCNC(=N)N)C(=O)N[C@@H](CC(C)C)C(=O)NCC(=O)N[C@@H](CC(N)=O)C(=O)NCC(=O)N[C@H](C(=O)N[C@@H](CC(C)C)C(=O)N[C@@H](Cc1ccc(O)cc1)C(N)=O)C(C)C` [Peptide 16] (Palmitoyl-RNNSRLGNGVLY-NH2), in series [1], the “inhibition of IGF-1 induced activity of AKT” value is reported as “inhibited IGF-1 induced activity of AKT in a dose-dependent manner”.

Take Ac-(ε-Pal)-KLTYAWHTSFKAL-NH2 [SMOi2-43]: the “in vitro activity as inhibitor of the Hedgehog pathway” value in series [2] is reported as “potent inhibitor”. With “Ac-AKFSTHWAYTLK-(ε-Pal), all-D [SMOi2-17]”, the entry into circulation result in series [3] was “did not enter the circulation”. Besides, the “in vitro activity as inhibitor of the Hedgehog pathway” value in series [2] is given as “subnanomolar range”.

As to Ac-LTYAWHTSFKAL-NH2 [SMOi2-9], in series [4], the “inhibition of SMO function” value was “inactive”.
